Assay [1] concerns CBR (luciferase derived from known click beetles). The assay can be described thus: Km of CBR luciferase (luminescence kinetic analysis). The class given is biochemical, click beetle. The conditions noted are these: 0.1 M Tris-HCl (pH 8.0), MgSO4, measured in a similar manner. How it is done:
(§1) A solution of 0.1 M Tris-HCl (pH 8.0) containing each of the purified luciferase, 4 mM of ATP, and 8 mM of MgSO4 was connected to the standard pump of the luminometer, and the measurements was carried out at the same time as addition of 50 μl of the solution to the well. A Luminescensor (ATTO) was used for the measurements. Measurements were repeated 3 times for each luciferin concentration.
(§2) The peak intensity of the obtained photo count value was plotted with respect to luciferin concentration S, defining the initial rate as V. The plots were subjected to curve fitting of Michaelis Menten type, thereby giving Km values. The curve fitting was performed by a nonlinear least-squares method, and the search of the parameter was performed by a Newton method.
(§3) 4-3. Measurement of Km Value with Respect to ATP
(§4) Under various ATP concentrations, the luminescent intensity of the obtained luciferase was measured. Based on the results, Km values with respect to ATP was determined.
(§5) Various […] types of ATP solutions were prepared by adding ATP to 0.1 M Tris-HCl (pH 8.0). These solutions contain ATP at final concentration of 5, 10, 20, 40, 80, 160, 320, 480, 640, 800, 1280, 1600, or 1920 μM. These ATP solutions were each injected into 96-hole in a microplate at a volume of 50 μl. […]
(§6) Table 1 also indicates Km values for known firefly luciferases, measured in a similar manner. […]

The test system of assay [2] is SP1 luciferase, Luciola sp1 (Malaysian firefly, genus Luciola), wild type, SEQ ID NO: 1. Put plainly: Km of SP1 luciferase (luminescence kinetic analysis). The conditions noted are these: for Km values with respect to ATP and D-luciferin, compared with known luciferases: FIG. 2, SP1 luciferase versus known luciferases; for Km: 0.1 M Tris-HCl (pH 8.0), MgSO4, Michaelis Menten curve fitting. The class given is biochemical.
Description: The measurements were carried out ten times for each sample, and the average of absorbency was used for the calculation.
Various 12 types of ATP solutions were prepared by adding ATP to 0.1 M Tris-HCl (pH 8.0). These solutions contain ATP at final concentration of 5, 10, 20, 40, 80, 160, 320, 480, 640, 800, 1280, 1600, or 1920 μM. These ATP solutions were each injected into 96-hole in a microplate at a volume of 50 μl. […] Measurement was repeated 3 times for each ATP concentration.
The peak intensities of the obtained photon count value were plotted with respect to ATP concentration S, with an initial rate V. The plots were subjected to curve fitting of Michaelis Menten type, thereby giving Km value. The curve fitting was performed by a nonlinear least-squares method, and the search of the parameter was performed by a Newton method.

For assay [3], the system named is CBG (luciferase derived from known click beetles). Put plainly: Km of CBG luciferase (luminescence kinetic analysis). To be noted: 0.1 M Tris-HCl (pH 8.0), MgSO4, measured in a similar manner. The assay is classed as biochemical, click beetle. The protocol:
as §1, §2, §3, §4, §5, §6

For assay [4], the system named is ELuc (luciferase derived from known click beetles). Put plainly: Km of ELuc luciferase (luminescence kinetic analysis). The conditions noted are these: 0.1 M Tris-HCl (pH 8.0), MgSO4, measured in a similar manner. The assay is classed as biochemical, click beetle. How it is done:
as §1, §2, §3, §4, §5, §6

Assay [5] is described as follows: Measurement of luminescent intensity of purified luciferase compared with Rhodamine 6G and P. pyralis luciferase. The assay is classed as biochemical. To be noted: purified enzymes, integration of light 300 nm to 650 nm for 10 seconds. How it is done:
Rhodamine 6G was dissolved into 0.1 M citric acid/0.2 M Na2HPO4 (pH 4.0) solution. The Rhodamine 6G solution was centrifuged for 1 minute at 15,000 rpm, and the supernatant was collected. The collected supernatant is diluted with 0.1 M citric acid/0.2 M Na2HPO4 solution 1000 fold, and the absorbance thereof was measured. Measurement was carried out by NanoVue (GE Healthcare). The measurement at 530 nm was repeated 5 times, and the average absorbance 0.048 was obtained. The concentration of the original Rhodamine 6G solution was calculated by using ε value of Rhodamine (1.16×10^5 mol^−1cm^−1), and the value 414 μM was obtained. The solution was diluted with 0.1 M citric acid/0.2 M Na2HPO4 solution (pH 4.0) to prepare 30 μM of a diluted solution.
Solution 1 having the following composition was prepared with use of the diluted solution.
Solution 2 was prepared by dissolving bis (2,4,6-trichlorophenyl)oxlate (TCPO) so that the final concentration thereof is 3 mM.
100 μl of solution 1 was injected for each well of 96-hole microplate. Measurement was started at the same time as addition of 50 μl of solution 2 with use of a pump, and integration value of photon counts for 10 seconds from addition of solution 2 was obtained. […]
A concentration of the obtained sample was measured by a colorimetric method, and the concentrations of P. pyralsis luciferase and SP1 luciferase were confirmed. […]

The next assay concerns HeLa cell. The assay can be described thus: Luminescent intensity of SP1 luciferase expressed in a mammal cell. The class given is cell-based. The conditions noted are these: expression in HeLa cell, 1 mM D-luciferin, integration for 10 seconds. The protocol:
SP1 luciferase was expressed in a HeLa cell, and the luminescent intensity in a cell was measured.
For introduction of SP1 luciferase gene, four types of expression vectors were prepared. Nucleic acids each containing a gene prepared by deleting recognition sequences of BamHI and EcoRI from the original SP1 luciferase gene obtained from Luciola sp1 (SEQ ID NO: 3), a gene further optimized for expression in a mammal cell (SEQ ID NO: 4), and two types of genes to which Kozak sequence was further added (SEQ ID NOS: 29 and 30) were each inserted into the multi-cloning site between BamHI and EcoRI of pcDNA3.1(+) vector (Invitrogen). Further, for comparison, a nucleic acid containing a known P. pyralis luciferase gene optimized for expression in a mammal cell was inserted into pcDNA3.1(+) vector similarly.
Five types of plasmids obtained in such a manner described above were each subjected to gene transfection to a HeLa cell by a lipofection method, and D-MEM culture medium was exchanged after 24 hours. […] The luminescent intensities shown in FIG. 4 are integration values for 10 seconds.

A further assay has as its system HeLa cells. Put plainly: Luminescence activity of SP1 mutants expressed in HeLa cells, corrected by hRluc internal standard. The assay is classed as cell-based. The conditions noted are these: 90 minutes after D-luciferin addition, corrected by hRluc luminescence at 10 minutes. From the text: The fragment of the nucleic acid having the base sequence of SEQ ID NO: 35 was inserted into between SgfI site and PmeI site of a pF9A CMV hRluc-neo FlexiR vector (Promega). The fragment of the nucleic acid having the base sequence of SEQ ID NO: 36 was inserted into between SgfI site and PmeI site of another pF9A CMV hRluc-neo FlexiR vector. Two types of the obtained expression vectors were each introduced into HeLa cells, and mutants were expressed.
The luminescence intensity of two types of cells expressing mutants was detected by using a cell expressing the original SP1 luciferase without mutations as a comparison. Here, the luminescence intensity of each Hela cell was corrected using the luminescence based on hRluc gene of pF9A CMV hRluc-neo FlexiR vector (Promega) as an internal standard.

The mark [6] stands for this setting: read-out: Km for D-luciferin, ATP.
Setting [7] is: D-luciferin, read-out: Km for ATP.

Results on six molecules are retold here after US8722376B2, “Firefly luciferase” (Olympus Corporation, priority 2011, dated 2014).

Residue numbers refer to the chain shown, from its start. Names may count otherwise. Like-named read-outs stand apart in the source and are kept apart here.

Take `O=C(O)[C@H]1CSC(c2nc3ccc(O)cc3s2)=N1` [D-luciferin]: the Km (in general, the substrate concentration at which the rate is half of its maximum) was found to be 33.3 µM in assay [1] (setting [6]), 44.6 µM in assay [2] (setting [6]), 1.44 µM in assay [3] (setting [6]) and 12.7 µM in assay [4] (setting [6]). In assay [2], the “Km values with respect to ATP and D-luciferin, compared with known luciferases” value is “higher Km values”.

For `Nc1ncnc2c1ncn2[C@@H]1O[C@H](COP(=O)(O)OP(=O)(O)OP(=O)(O)O)[C@@H](O)[C@H]1O` [ATP], the Michaelis constant (Km) in assay [1] (setting [7]) was found to be 47.1 µM; in assay [2] (setting [7]), 195 µM; in assay [3] (setting [7]), 58.4 µM; in assay [4] (setting [7]) it was 182 µM. In assay [2], the “Km values with respect to ATP and D-luciferin, compared with known luciferases” value is “higher Km values”.

B1: SP1 luciferase: luciferase of SEQ ID NO: 1 derived from Malaysian firefly Luciola sp1 (protein, listed as Luciola sp.)
chain: MNNMDDGEHIVVGPQPFYPVEEGSAGTQLLKYLKQYSKLGAIAFSNAHTKVDISYAEYLDTSVRLAQALINYGIPIDGRIALCSENCEEFYFPVLAGLYIGAGVAPTNEIYTLRELVHSLGISKPTIVFSSKKGLEKVITVQKTVTCIKTIVILDSKVDYQGYDCLETFIKKYLPAGFSVENFIPREVNRKEQVALVMNSSGSTGLPKGVQITHEGAVTRFSHARDPIYGNQVSPGTAILTIVPFHHGFGMFTNLGYLTCGYRIVMLTKFDEELFLKTLADYKCTSVILVPTLFAILSKSVLLEKYDLSNLVEIASGGAPLAKEVGEAVARRFNLPGIRQGYGLTETTSAIIITPEGDDKPGASGKIVPLFRAKVVDLDTQKTLGPNRRGEICVKGPMLMKGYVDDPVATSQIIDKDGWLHTGDIGYFDEDKHFFIVDRLKSLIKYKGYQVPPAELESVLLQHPDIFDAGVAGLPDPLAGELPGAVVVLEKGRHMTEQQVMDYVAGQVSNAKRLRGGVRFVDEVPKGLTGKIDSKAIREILKSPKAKM
For the molecule B1, the “luminescent intensity in comparison to that of P. pyralis luciferase” value in assay [5] is 4.9 times.

B2: SP1 luciferase codon optimized: SP1 luciferase expressed from gene optimized for expression in a mammal cell (SEQ ID NO: 4) (protein, listed as Luciola sp.)
chain: B1 chain
Consider B2, for which, in the assay on HeLa cell, the “increase of luminescent intensity in comparison to SP1 luciferase without codon optimization” value came to 16.2 times and the “luminescent intensity in comparison to that of P. pyralis luciferase after codon optimization” value was found to be 1.7 times.

B3: SP1 mutant 1: SP1 luciferase with mutations D438G, I532R and E356R; amino acid sequence SEQ ID NO: 37 (protein)
chain: B1 chain with E356R, D438G, I532R
modifications: Luciola sp. mutant 1
As for B3, in the assay on HeLa cells, the “luminescence intensity in comparison to the original SP1” value is listed as “increased”.

B4: SP1 mutant 2: SP1 luciferase with mutations E356R and V368A; amino acid sequence SEQ ID NO: 38 (protein)
chain: B1 chain with E356R, V368A
modifications: Luciola sp. mutant 2
In the case of B4, in the assay on HeLa cells, the “luminescence intensity in comparison to the original SP1” value is listed as “increased”.
